Experiments:
[1] = system: 34 MDR P. aeruginosa clinical isolates (CDC & FDA AR Isolate Bank); assay: microbe, parasite or virus in culture; assay type: cell-based, Pseudomonas aeruginosa; conditions: for Levofloxacin MIC fold difference: + labelled EPI […] (TXA09155 head: 50 µg/mL); for Levofloxacin MIC: alone or + labelled EPI […] (TXA09155 head: 50 µg/mL)
Source text: P. aeruginosa ATCC 27853 was obtained from the American Type Culture Collection (ATCC; Manassas, VA, USA). P. aeruginosa multidrug-resistant isolates were obtained from the CDC and FDA Antibiotic Resistance Isolate Bank (Atlanta, GA, USA). P. aeruginosa DA7232 (gyrA-T83I, parC-S80L) was a kind gift from Prof. Dan I. Andersson, Uppsala University, Uppsala, Sweden, and has been characterized elsewhere. P. aeruginosa strains K767 (WT), K1455 (mexAB-oprM overexpressed), K2415 (mexXY-oprM overexpressed), and K3698 (oprM∆) were obtained from Prof. Keith Poole, Queen’s University, Kingston, Ontario, Canada and have been characterized elsewhere. Bacterial cells were grown in cation-adjusted Mueller Hinton (CAMH) media, brain heart infusion broth (BHI), or tryptic soy agar (TSA) plates were all obtained from Becton, Dickinson, and Company (BD; Franklin Lakes, NJ, USA). […] Azithromycin was purchased from Tokyo Chemical Industry (Portland, OR, USA). […] Ethidium bromide (EtBr) and glucose were purchased from VWR (Radnor, PA, USA). MC-04,124 and TXA01182 were synthesized at TAXIS Pharmaceuticals. Carbonyl cyanide 3-chlorophenylhydrazone (CCCP) was purchased from Enzo Life Sciences (Farmingdale, NY, USA). DiOC2 (3) and propidium iodide were obtained from Thermo Fisher Scientific (Waltham, MA, USA).
MIC assays were performed as described previously.

P. aeruginosa ATCC 27853 = assay type: cell-based, Pseudomonas aeruginosa; conditions: levofloxacin 4 μg/mL + EPI […]
Protocol: All resistant colonies were verified by determining the MIC to TXA09155. […] This two-component system regulates the expression of more than 100 genes in P. aeruginosa, including genes that code for efflux components (mexX), and plays a role in the resistance to cationic antimicrobial peptides and aminoglycoside antibiotics.
The frequency of resistance studies was carried out as described previously.

## NCCC[C@H](N)CNC(=O)c1cc2ccc(-c3ccc(F)cc3)cc2[nH]1 [TXA01182]
[1]; strain AR-0229
  Levofloxacin MIC fold difference: 8
  Levofloxacin MIC: 8 µg/mL
[1]; strain AR-0230
  Levofloxacin MIC fold difference: 4
  Levofloxacin MIC: 16 µg/mL
[1]; strain AR-0231
  Levofloxacin MIC fold difference: 2
  Levofloxacin MIC: 32 µg/mL
[1]; strain AR-0232
  Levofloxacin MIC fold difference: 8
  Levofloxacin MIC: 1 µg/mL
[1]; strain AR-0233
  Levofloxacin MIC fold difference: 8
  Levofloxacin MIC: 0.5 µg/mL
[1]; strain AR-0234
  Levofloxacin MIC fold difference: 8
  Levofloxacin MIC: 1 µg/mL
[1]; strain AR-0236
  Levofloxacin MIC fold difference: 4
  Levofloxacin MIC: 8 µg/mL
[1]; strain AR-0239
  Levofloxacin MIC fold difference: 8
  Levofloxacin MIC: 8 µg/mL
[1]; strain AR-0240
  Levofloxacin MIC fold difference: 8
  Levofloxacin MIC: 16 µg/mL
[1]; strain AR-0241
  Levofloxacin MIC fold difference: 4
  Levofloxacin MIC: 16 µg/mL
[1]; strain AR-0242
  Levofloxacin MIC fold difference: 8
  Levofloxacin MIC: 2 µg/mL
[1]; strain AR-0244
  Levofloxacin MIC fold difference: 16
  Levofloxacin MIC: 8 µg/mL
[1]; strain AR-0245
  Levofloxacin MIC fold difference: 4
  Levofloxacin MIC: 32 µg/mL
[1]; strain AR-0246
  Levofloxacin MIC fold difference: 4
  Levofloxacin MIC: 16 µg/mL
[1]; strain AR-0247
  Levofloxacin MIC fold difference: 64
  Levofloxacin MIC: 0.031 µg/mL
[1]; strain AR-0248
  Levofloxacin MIC fold difference: 8
  Levofloxacin MIC: 2 µg/mL
[1]; strain AR-0249
  Levofloxacin MIC fold difference: 8
  Levofloxacin MIC: 8 µg/mL
[1]; strain AR-0250
  Levofloxacin MIC fold difference: 4
  Levofloxacin MIC: 16 µg/mL
[1]; strain AR-0252
  Levofloxacin MIC fold difference: 16
  Levofloxacin MIC: 2 µg/mL
[1]; strain AR-0253
  Levofloxacin MIC fold difference: 16
  Levofloxacin MIC: 0.125 µg/mL
[1]; strain AR-0256
  Levofloxacin MIC fold difference: 8
  Levofloxacin MIC: 0.062 µg/mL
[1]; strain AR-0258
  Levofloxacin MIC fold difference: 4
  Levofloxacin MIC: 0.125 µg/mL
[1]; strain AR-0259
  Levofloxacin MIC fold difference: 1
  Levofloxacin MIC: 0.125 µg/mL
[1]; strain AR-0260
  Levofloxacin MIC fold difference: 4
  Levofloxacin MIC: 16 µg/mL
[1]; strain AR-0261
  Levofloxacin MIC fold difference: 16
  Levofloxacin MIC: 0.5 µg/mL
[1]; strain AR-0262
  Levofloxacin MIC fold difference: 16
  Levofloxacin MIC: 0.25 µg/mL
[1]; strain AR-0264
  Levofloxacin MIC fold difference: 8
  Levofloxacin MIC: 4 µg/mL
[1]; strain AR-0265
  Levofloxacin MIC fold difference: 8
  Levofloxacin MIC: 8 µg/mL
[1]; strain AR-0266
  Levofloxacin MIC fold difference: 4
  Levofloxacin MIC: 8 µg/mL
[1]; strain AR-0267
  Levofloxacin MIC fold difference: 16
  Levofloxacin MIC: 2 µg/mL
[1]; strain AR-0269
  Levofloxacin MIC fold difference: 8
  Levofloxacin MIC: 4 µg/mL
[1]; strain AR-0270
  Levofloxacin MIC fold difference: 16
  Levofloxacin MIC: 2 µg/mL
[1]; strain AR-0271
  Levofloxacin MIC fold difference: 4
  Levofloxacin MIC: 8 µg/mL
[1]; strain AR-0272
  Levofloxacin MIC fold difference: 4
  Levofloxacin MIC: 4 µg/mL
P. aeruginosa ATCC 27853
  Frequency of resistance, Levofloxacin (4 μg/mL) + TXA01182 ([…]): <3.33 × 10^−9
